According to ChEMBL document CHEMBL1201862, “PubChem BioAssay data set” (2004):
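Grown in 96-well plates, cells were treated for 48 hours with each compound at five concentrations. Insufficient inhibition: endpoint recorded as highest concentration tested. GI50 marks 50% less growth.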 The source made the active and inactive calls. No stated cut-off is given here; in the data, active = GI50 up to about 1.1 µM and inactive = higher.

Assays:
Test in all cases: NCI anticancer screen, dose series, 48 h
[1] = test system: OVCAR-5
[2] = test system: UACC-62
[3] = test system: SW-620
[4] = test system: MDA-N
[5] = test system: NCI-H226
[6] = test system: TK-10
[7] = test system: U-251
[8] = test system: KM12
[9] = test system: RXF 393
[10] = test system: SF-539
[11] = test system: SF-295
[12] = test system: SK-MEL-5
[13] = test system: DU-145
[14] = test system: HT-29
[15] = test system: MDA-MB-231
[16] = test system: CCRF-CEM
[17] = test system: SR
[18] = test system: HOP-62
[19] = test system: CAKI-1
[20] = test system: OVCAR-4

| Structure (SMILES) | GI50 [1] | GI50 [2] | GI50 [3] | GI50 [4] | GI50 [5] | GI50 [6] | GI50 [7] | GI50 [8] | GI50 [9] | GI50 [10] | GI50 [11] | GI50 [12] | GI50 [13] | GI50 [14] | GI50 [15] | GI50 [16] | GI50 [17] | GI50 [18] | GI50 [19] | GI50 [20] |
| --- | --- | --- | --- | --- | --- | --- | --- | --- | --- | --- | --- | --- | --- | --- | --- | --- | --- | --- | --- | --- |
| Brc1ccc2[nH]cc(-c3nc(-c4c[nH]c5ccccc45)cs3)c2c1 | 1.95 µM (inactive) | 2.37 µM (inactive) | 3.16 µM (inactive) | 2.91 µM (inactive) | 2.59 µM (inactive) | 3.56 µM (inactive) | 3.01 µM (inactive) | 2.09 µM (inactive) | 5.48 µM (inactive) | 2.9 µM (inactive) | 2.84 µM (inactive) | 1.6 µM (inactive) | 3.45 µM (inactive) | 1.85 µM (inactive) | 2.37 µM (inactive) | 3.79 µM (inactive) | 3.44 µM (inactive) | 4.58 µM (inactive) | 2.74 µM (inactive) | 6.03 µM (inactive) |
| CCOP(=O)(OCC)C(c1ccc(F)cc1)N(C(=O)NC(F)(F)F)c1cccc(C(F)(F)F)c1 (stereo not given) | > 100 µM (inactive) | 72.8 µM (inactive) | > 100 µM (inactive) | > 100 µM (inactive) | > 100 µM (inactive) | > 100 µM (inactive) | > 100 µM (inactive) | > 100 µM (inactive) | 52.8 µM (inactive) | > 100 µM (inactive) | > 100 µM (inactive) | > 100 µM (inactive) | > 100 µM (inactive) | 86.9 µM (inactive) | > 100 µM (inactive) | > 100 µM (inactive) | 75.3 µM (inactive) | > 100 µM (inactive) | > 100 µM (inactive) | 96.4 µM (inactive) |
| [N-]=[N+]=CC(=O)OC1Cc2ccccc2C1 | 73.1 µM (inactive) | > 100 µM (inactive) | > 100 µM (inactive) | > 100 µM (inactive) | > 93.3 µM (inactive) | 97.3 µM (inactive) | > 100 µM (inactive) | > 100 µM (inactive) | > 42.6 µM (inactive) | > 100 µM (inactive) | 61.9 µM (inactive) | > 56.6 µM (inactive) | 21.1 µM (inactive) | > 100 µM (inactive) | > 100 µM (inactive) | > 31.6 µM (inactive) | > 100 µM (inactive) | > 66.8 µM (inactive) | 1 µM (active) | > 100 µM (inactive) |
| C=C(Cl)[C@](Cl)(CBr)CC[C@@H](Br)C(C)(C)Cl [HALOMON] | 1.56 µM (inactive) | 3.19 µM (inactive) | 2.07 µM (inactive) | 0.959 µM (active) | 17 µM (inactive) | 1.81 µM (inactive) | 0.181 µM (active) | 0.927 µM (active) | 0.121 µM (active) | 0.562 µM (active) | 1.02 µM (active) | 12.3 µM (inactive) | 1.1 µM (active) | 0.783 µM (active) | 1.16 µM (inactive) | 14.4 µM (inactive) | 7.21 µM (inactive) | 0.23 µM (active) | 0.337 µM (active) | 1.46 µM (inactive) |
| COc1cccc(O)c1-c1cc(=O)c2c(O)c(OC)c(OC)c(OC)c2o1 [SKULLCAPFLAVONE II] | 50.9 µM (inactive) | 14.7 µM (inactive) | 31.8 µM (inactive) | 12.9 µM (inactive) | 47.2 µM (inactive) | 44.8 µM (inactive) | 31.6 µM (inactive) | 12 µM (inactive) | 14.1 µM (inactive) | 36.8 µM (inactive) | 21.1 µM (inactive) | 19 µM (inactive) | 16.4 µM (inactive) | 6.5 µM (inactive) | 41 µM (inactive) | 34.5 µM (inactive) | 4.82 µM (inactive) | 17.5 µM (inactive) | 22.8 µM (inactive) | 30.3 µM (inactive) |
